These results are taken from US11319289B2, “5-hydroxy pyridine-based compound for use as P2X1 and P2X3 receptor antagonist and pharmaceutical composition comprising same” (GWANGJU INSTITUTE OF SCIENCE AND TECHNOLOGY, priority 2017, dated 2022).

Molecules are shown by their SMILES. Some results are limits rather than exact numbers.

The data set concerns the target T1, hERG K+ channel (Homo sapiens, UniProt Q12809).
T1 construct: host or cells: CHO-K1 Tet-On hERG cells
The experiment in a line: hERG K+ channel patch-clamp assay in CHO-K1 Tet-On hERG cells. The data set is classed as cell-based. Here is the method:
2-2. hERF Channel Test Method
hERG K^+ Channel Conventional Patch-Clamp Assay
CHO-K1 cells expressing hERG channels via an inducible Tet-On gene expression system (CHO-K1 Tet-On hERG cells) were purchased from IonGate Biosciences GmbH (Frankfurt, Germany). CHO-K1 Tet-On hERG cells were incubated in Dulbecco's modified Eagle's medium (DMEM) containing 10% (v/v) fetal bovine serum, penicillin (100 U/mL), streptomycin (100 μg/mL), fungizone (2.5 μg/mL), as well as selection antibiotics, geneticin G418 (200 μg/mL), hygromycin (200 μg/mL) and puromycin (2 μg/mL) in a humidified condition of 5% CO2 at 37° C. The cells were passaged by treatment with trypsin-EDTA every three days. […]
NPC-16 Patchliner (Nanion Technologies, Munchen, Germany), an automated patch-clamp apparatus, was used for the whole-cell recordings. Whole-cell currents were recorded using an intracellular solution (unit in mM) containing 50 KCl, 60 KF, 10 NaCl, 2 MgCl2, 20 EGTA and 10 HEPES (pH 7.2) and an extracellular solution (unit in mM) containing 140 NaCl, 4 KCl, 2 CaCl2, 1MgCl2, 5 glucose and 10 HEPES (pH 7.4). […]
hERG channel currents were recorded using a parallel EPC-10 patch clamp amplifier (HEKA Elektronik, Lambrecht/Pfalz, Germany), and low-pass filtering (10 kHz) was performed with a 4-pole Bessel filter. […]
(Block of hERG is tested as a sign of cardiac risk.)

T1 sequence (Q12809 whole entry): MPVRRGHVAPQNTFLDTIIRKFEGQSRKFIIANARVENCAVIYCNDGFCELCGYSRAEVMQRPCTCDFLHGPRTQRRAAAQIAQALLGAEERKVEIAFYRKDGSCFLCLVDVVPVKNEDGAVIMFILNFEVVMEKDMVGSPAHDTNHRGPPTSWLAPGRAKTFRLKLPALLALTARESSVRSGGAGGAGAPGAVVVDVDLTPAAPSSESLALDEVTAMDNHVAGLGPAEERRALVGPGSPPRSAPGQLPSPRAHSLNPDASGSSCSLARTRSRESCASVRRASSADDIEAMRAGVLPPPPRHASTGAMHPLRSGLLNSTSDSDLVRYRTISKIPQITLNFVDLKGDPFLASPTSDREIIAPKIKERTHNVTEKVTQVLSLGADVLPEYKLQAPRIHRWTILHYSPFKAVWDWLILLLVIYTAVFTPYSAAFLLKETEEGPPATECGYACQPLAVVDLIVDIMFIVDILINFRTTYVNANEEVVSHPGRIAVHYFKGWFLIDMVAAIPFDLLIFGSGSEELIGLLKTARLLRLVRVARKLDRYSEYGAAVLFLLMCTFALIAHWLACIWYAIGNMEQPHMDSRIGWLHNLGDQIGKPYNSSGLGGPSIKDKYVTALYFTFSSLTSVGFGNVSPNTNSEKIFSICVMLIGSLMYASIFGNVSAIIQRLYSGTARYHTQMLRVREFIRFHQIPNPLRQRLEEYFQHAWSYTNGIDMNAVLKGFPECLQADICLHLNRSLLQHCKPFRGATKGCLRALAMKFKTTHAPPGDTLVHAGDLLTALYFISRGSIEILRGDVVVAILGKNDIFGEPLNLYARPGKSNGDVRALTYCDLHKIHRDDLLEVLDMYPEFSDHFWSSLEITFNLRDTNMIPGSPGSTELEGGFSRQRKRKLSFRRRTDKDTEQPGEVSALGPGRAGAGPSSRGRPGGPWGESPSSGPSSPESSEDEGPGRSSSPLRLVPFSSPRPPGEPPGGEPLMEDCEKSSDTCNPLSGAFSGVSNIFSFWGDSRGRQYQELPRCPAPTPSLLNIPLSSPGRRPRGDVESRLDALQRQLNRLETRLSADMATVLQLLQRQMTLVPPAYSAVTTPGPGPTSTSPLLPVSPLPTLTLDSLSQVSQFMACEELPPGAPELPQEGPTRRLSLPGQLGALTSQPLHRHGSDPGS

The term IC50 denotes the concentration at which inhibition is half-maximal. High values mean a need for much substance, low ones inhibition by little substance. Turning to `CCCc1nc(Cc2cccc(Oc3ccccc3)c2)c(C)c(C(=O)O)c1O` [Compound 29, 3-Hydroxy-5-methyl-6-(3-phenoxybenzyl)-2-propylisonicotinic acid], where the note is “patch clamp, CHO-K1 Tet-On hERG cells”, the IC50 was above 100 µM. Also, for the setting “result in words”, the “in vitro inhibitory activity against hERG channels” value is “did not show any inhibitory activity”.
